Test results as given in patent publication US20030113784A1, “Regulated expression of recombinant DNA” (priority 2001, published 2003).

Tested on: β-galactosidase expression in C2C12 myoblasts cotransfected with Op8iME and Lac-R
Experiment: Time course of IPTG induction of β-galactosidase expression (chemiluminescent assay of cell lysates)
Assay type: cell-based
Conditions: 5 mM IPTG added sixteen hours post-transfection
Method: The time course of IPTG induction of β-galactosidase expression in one of the muscle enhancer and SV40 intron containing constructs was determined. The kinetics of Op8iME induction in C2C12 myoblasts were plotted over the course of 48 hours. Op8iME and the Lac-R were transiently cotransfected into C2C12 myoblasts. Sixteen hours post-transfection, 5 mM IPTG was added. β-galactosidase expression was monitored in cell lysates by chemiluminescent assay (Promega) at a selection of time-points from 1 h to 48 h. IPTG-dependent induction of β-galactosidase began at 4h and increased over time, with a maximum peak at 24 h (FIG. 11).

## CC(C)S[C@@H]1O[C@H](CO)[C@H](O)[C@H](O)[C@H]1O [IPTG, isopropylthiogalactoside]
  time of maximum peak of IPTG-dependent induction of β-galactosidase: 24 h
time-points 1 h to 48 h
  start of IPTG-dependent induction of β-galactosidase: 4 h
